Source: patent publication US20170348376A1, “TUBULYSIN CONJUGATE FOR USE IN TREATING CANCER” (ENDOCYTE, INC., priority 2016, published 2017)
Structures can show the parent of a compound that is named as a salt.

Tests used:
[1] = tested on: primary human NSCLC model LU2505 tumors; assay: Antitumor activity in Huprime NSCLC PDX tumor model LU2505; type: in vivo, Balb/c nu/nu mice; settings: Docetaxel 15 mg/kg, one dose
Method: (§1) These studies were performed at Crown Bioscience (Beijing) Inc., Ground Floor, Light Muller Building, Changping Sector of Zhongguancun Scientific Park, No. 21 Huoju Road, Changping District, Beijing, P.R. China.

[2] = tested on: primary human NSCLC model LU1147 tumors; assay: Antitumor activity in Huprime NSCLC PDX tumor model LU1147; type: in vivo, Balb/c nu/nu mice; settings: Docetaxel 15 mg/kg, one dose
Method: as §1

[3] = tested on: primary human TNBC model ST502 tumors; assay: Antitumor activity in TNBC ST502 model; type: in vivo, Balb/c nu/nu mice; settings: Eribulin mesylate 1 mg/kg, once a week for two weeks (SIW×2); n=7
Method: (§2) These materials were obtained from and studies were performed at South Texas Accelerated Research Therapeutics, 4383 Medical Drive, San Antonio, Tex. 78229

[4] = tested on: primary human TNBC model ST738 tumors; assay: Antitumor activity in TNBC ST738 model; type: in vivo, Balb/c nu/nu mice; settings: Eribulin mesylate 1 mg/kg, once a week for two weeks (SIW×2); n=7
Method: as §2

[5] = tested on: FR-positive paclitaxel resistant KB-PR10 tumors; assay: Antitumor activity on paclitaxel resistant KB-PR10 tumors; type: in vivo, nu/nu mice; settings: paclitaxel 20 mg/kg, three times a week for two weeks (TIW×2), i.v.
Method: Four to six week-old female nu/nu mice (Harlan Sprague Dawley, Inc., Indianapolis, Ind.) were maintained on a standard 12 h light-dark cycle and fed ad libitum with folate-deficient chow (Harlan diet #TD00434, Harlan Teklad, Madison, Wis.) for the duration of the experiment. FR-positive paclitaxel resistant KB-PR10 cells were grown continuously as a monolayer, using folate-free RPMI medium (FFRPMI) containing 5% heat-inactivated fetal calf serum (HIFCS) at 37° C. in a 5% CO2/95% air-humidified atmosphere with no antibiotics. KB-PR10 cells (1×10^6 per nu/nu mouse) in 100 μL were injected in the subcutis of the dorsal medial area. […] Mice were treated with 20 mg/kg Paclitaxel, 2 μmol/kg EC145 (See WO2004/069159 for a description of EC145) or 1 μmol/kg Compound I on a three times a week for 2 weeks schedule when the tumors were approximately 100-145 mm^3, 101-129 mm^3 and 100-140 mm^3 in volume, respectively. The mice in the control groups received no treatment.

[6] = tested on: primary human Endometrial model ST040 tumors; assay: Antitumor activity in Endometrial ST040 model; type: in vivo, Balb/c nu/nu mice; settings: Paclitaxel 15 mg/kg, once a week for two weeks (SIW×2); n=3
[7] = tested on: primary human Ovarian model ST024 tumors; assay: Antitumor activity in Ovarian ST024 model; type: in vivo, Balb/c nu/nu mice; settings: Paclitaxel 15 mg/kg, once a week for two weeks (SIW×2); n=7

## CC(=O)O[C@@]12CO[C@@H]1C[C@H](O)[C@@]1(C)C(=O)[C@H](O)C3=C(C)[C@@H](OC(=O)[C@H](O)[C@@H](NC(=O)OC(C)(C)C)c4ccccc4)C[C@@](O)([C@@H](OC(=O)c4ccccc4)[C@H]21)C3(C)C [Docetaxel]
[1]
  anti-tumor activity: some anti-tumor activity
[2]
  anti-tumor activity: minimal anti-tumor activity

## C=C1C[C@@H]2CC[C@@]34C[C@H]5O[C@H]6[C@@H](O3)[C@H]3O[C@H](CC[C@@H]3O[C@H]6[C@H]5O4)CC(=O)C[C@@H]3[C@@H](OC)[C@@H](C[C@H](O)CN)O[C@H]3C[C@H]3O[C@@H](CC[C@@H]1O2)C[C@@H](C)C3=C [Eribulin mesylate]
[3]
  anti-tumor activity: minimal anti-tumor activity
[4]
  anti-tumor activity: some anti-tumor activity

## CC(=O)O[C@H]1C(=O)[C@@]2(C)[C@H]([C@H](OC(=O)c3ccccc3)[C@]3(O)C[C@H](OC(=O)[C@H](O)[C@@H](NC(=O)c4ccccc4)c4ccccc4)C(C)=C1C3(C)C)[C@]1(OC(C)=O)CO[C@@H]1C[C@@H]2O [Paclitaxel]
[5]
  anti-tumor activity: little to no anti-tumor activity
  partial responses: 0
[6]
  anti-tumor activity: minimal anti-tumor activity
[7]
  anti-tumor activity: no anti-tumor activity
